Results published in PubChem BioAssay (NCI).
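The compound was tested at five concentrations on cells cultured in 96-well plates, with a 48-hour exposure period. Here, GI50 denotes the concentration required for 50% inhibition of growth. TGI: total growth inhibition.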

Columns and labels:
Assay in all cases: growth of human tumour cells (NCI), 48 h
[1] = test system: 786-0 renal
[2] = test system: A498 renal
[3] = test system: A549 NSCLC
[4] = test system: ACHN renal
[5] = test system: BT-549 breast
[6] = test system: CAKI-1 renal
[7] = test system: CCRF-CEM leukemia
[8] = test system: COLO 205 colon
[9] = test system: DU-145 prostate
[10] = test system: EKVX NSCLC
[11] = test system: HCT-116 colon
[12] = test system: HCT-15 colon
[13] = test system: HL-60(TB) leukemia
[14] = test system: HOP-62 NSCLC
[15] = test system: HS 578T breast
[16] = test system: HT29 colon
[17] = test system: IGROV1 ovarian
[18] = test system: K-562 leukemia
[19] = test system: KM12 colon
[20] = test system: LOX IMVI melanoma
[21] = test system: M14 melanoma
[22] = test system: MALME-3M melanoma
[23] = test system: MCF7 breast
[24] = test system: MDA-MB-231 breast
[25] = test system: MDA-MB-435
[26] = test system: MOLT-4 leukemia
[27] = test system: NCI-H226 lung
[28] = test system: NCI-H23 lung
[29] = test system: NCI-H460 lung
[30] = test system: NCI-H522 lung
[31] = test system: NCI/ADR-RES ovarian
[32] = test system: OVCAR-3 ovarian
[33] = test system: OVCAR-4 ovarian
[34] = test system: OVCAR-5 ovarian
[35] = test system: OVCAR-8 ovarian
[36] = test system: PC-3 prostate
[37] = test system: RPMI-8226 leukemia
[38] = test system: SF-268 CNS
[39] = test system: SF-295 CNS
[40] = test system: SF-539 CNS
[41] = test system: SK-MEL-2 melanoma
[42] = test system: SK-MEL-28 melanoma
[43] = test system: SK-MEL-5 melanoma
[44] = test system: SK-OV-3 ovarian
[45] = test system: SN12C renal
[46] = test system: SNB-19 CNS
[47] = test system: SNB-75 CNS
[48] = test system: SR leukemia
[49] = test system: T-47D breast
[50] = test system: TK-10 renal
[51] = test system: U251 CNS
[52] = test system: UACC-257 melanoma
[53] = test system: UACC-62 melanoma
[54] = test system: UO-31 renal

O=C(N/N=C(\CN1CCN(c2cc3[nH]cc(C(=O)O)c(=O)c3cc2F)CC1)c1ccc(Cl)cc1)c1ccncc1
GI50 [1]: 39.9 µM | TGI [1]: > 100 µM | GI50 [2]: 23.3 µM | TGI [2]: > 100 µM | GI50 [3]: 22.3 µM | TGI [3]: 65.5 µM | GI50 [4]: 18.4 µM | TGI [4]: 42.6 µM | GI50 [5]: 33.6 µM | TGI [5]: > 100 µM | GI50 [6]: 1960 nM | TGI [6]: 5.61 µM | GI50 [7]: 22.5 µM | TGI [7]: > 100 µM | GI50 [8]: 78 µM | TGI [8]: > 100 µM | GI50 [9]: 36 µM | TGI [9]: > 100 µM | GI50 [10]: 38 µM | TGI [10]: > 100 µM | GI50 [11]: 37.5 µM | TGI [11]: > 100 µM | GI50 [12]: 21.1 µM | TGI [12]: 42.8 µM | GI50 [13]: 19.4 µM | TGI [13]: 43.3 µM | GI50 [14]: 39.4 µM | TGI [14]: > 100 µM | GI50 [15]: 29.1 µM | TGI [15]: 99.2 µM | GI50 [16]: 37 µM | TGI [16]: > 100 µM | GI50 [17]: 3.32 µM | TGI [17]: 26.9 µM | GI50 [18]: 26.9 µM | TGI [18]: > 100 µM | GI50 [19]: 30.6 µM | TGI [19]: > 100 µM | GI50 [20]: 16.8 µM | TGI [20]: 33.4 µM | GI50 [21]: 32.3 µM | TGI [21]: 79.5 µM | GI50 [22]: 18.6 µM | TGI [22]: 58 µM | GI50 [23]: 21 µM | TGI [23]: 66.9 µM | GI50 [24]: 20.2 µM | TGI [24]: 46.1 µM | GI50 [25]: 19.4 µM | TGI [25]: 49.4 µM | GI50 [26]: 22.8 µM | TGI [26]: 52.6 µM | GI50 [27]: 23.1 µM | TGI [27]: 80.5 µM | GI50 [28]: 30.8 µM | TGI [28]: 81.2 µM | GI50 [29]: 22.7 µM | TGI [29]: 67.6 µM | GI50 [30]: 22.7 µM | TGI [30]: 52.9 µM | GI50 [31]: 28.4 µM | TGI [31]: 66.3 µM | GI50 [32]: 2890 nM | TGI [32]: 19.9 µM | GI50 [33]: 39.8 µM | TGI [33]: > 100 µM | GI50 [34]: 50.9 µM | TGI [34]: > 100 µM | GI50 [35]: 21.4 µM | TGI [35]: 47.4 µM | GI50 [36]: 22.7 µM | TGI [36]: 52.4 µM | GI50 [37]: 19 µM | TGI [37]: 43 µM | GI50 [38]: 25.8 µM | TGI [38]: 89.9 µM | GI50 [39]: 21 µM | TGI [39]: 52.1 µM | GI50 [40]: 28.6 µM | TGI [40]: 87.4 µM | GI50 [41]: 30.7 µM | TGI [41]: 74.4 µM | GI50 [42]: > 100 µM | TGI [42]: > 100 µM | GI50 [43]: 16.4 µM | TGI [43]: 31.6 µM | GI50 [44]: 78.6 µM | TGI [44]: > 100 µM | GI50 [45]: 24.8 µM | TGI [45]: 61.8 µM | GI50 [46]: 76.9 µM | TGI [46]: > 100 µM | GI50 [47]: 61.6 µM | TGI [47]: > 100 µM | GI50 [48]: 18.2 µM | TGI [48]: 55.4 µM | GI50 [49]: 42.2 µM | TGI [49]: > 100 µM | GI50 [50]: 43 µM | TGI [50]: > 100 µM | GI50 [51]: 33.5 µM | TGI [51]: > 100 µM | GI50 [52]: 23.2 µM | TGI [52]: 49 µM | GI50 [53]: 25.6 µM | TGI [53]: 61.9 µM | GI50 [54]: 18.7 µM | TGI [54]: 41.8 µM
